Results reported in patent publication US20250146011A1, “HERBICIDE-RESISTANT CAMELINA SATIVA PLANTS, AND VARIANT CAMELINA ACETOHYDROXYACID SYNTHASE POLYPEPTIDES” (Smart Earth Camelina Corp., priority 2019, published 2025).
Values joined by “and” are separate entries in the source; they are usually repeats but may differ in a detail not shown here. Identical values can stand only once. Marks after values point to notes of the source that are not given here.

Assays:
AHAS of SRS 934 = experiment: AHAS product feedback inhibition assay; type: biochemical, Camelina sativa; conditions: for Absorbance reading (530 nm), raw data: single reps
Protocol: (§1) Briefly, for each of the three comparators, leaf and stem (petiole) material was bulk-harvested at the 3-4 leaf stage from at least 30 plantlets, snap-frozen in liquid nitrogen, and stored at −80° C. The AHAS in vitro assay was conducted according to the method of Singh et al (1988), with modifications by Yu (2010) and Rustgi (2014). For each comparator, 4 grams of frozen material were ground to a fine powder with a mortar and pestle in liquid nitrogen and homogenized in 1 volume of cold extraction buffer containing 100 mM potassium phosphate buffer (pH7.5), 10 mM sodium pyruvate, 5 mM MgCl2, 100 μM flavin adenine dinucleotide (FAD), and 10% glycerol. Four 2-mL microcentrifuge tubes were used for each comparator. The homogenate was centrifuged at 13,000 rpm for 10 min at 4° C., supernatant collected and re-centrifuged for an additional 10 minutes under the same conditions. For each tube, 1 mL of supernatant was pipetted into a new 2-mL microcentrifuge tube, and protein was precipitated by the addition of 1 mL of saturated ammonium sulfate. The solution was mixed well by vortex and allowed to stand on ice for 20 minutes, then centrifuged at 13,000 rpm at 4° C. The protein pellet was resuspended in 300 μL of reaction buffer containing 50 mM potassium phosphate buffer (pH7.5), 100 mM sodium pyruvate, 10 mM MgCl2, 1 mM EDTA, 10 μM FAD, 100 mM NaCl, and 1 mM thiamine pyrophosphate. Tubes of each comparator were combined, mixed well, kept on ice and immediately used in the AHAS activity and feedback inhibition assays.
(§2) Total protein concentration of the crude extract was determined by the Bradford method (Bradford, 1976). All assays were conducted using 300 μg of total protein each.
(§3) […] (2010). The reaction mixture contained 50 μL enzyme extract and 50 μL 100 mM sodium pyruvate and inhibitor amino acid. The reaction was incubated at 37° C. for 60 minutes, then stopped and acetolactate converted to acetoin with the addition of 20 μL of 6 N H2SO4 and incubated at 60° C. for 15 minutes. A separate background “blank” was included for each sample group by adding 20 μL of 6 N H2SO4 prior to the addition of the enzyme extracts. Then, 95 μL of 0.55% w/v creatine solution and 95 μL of α-naphthol solution (5.5% w/v in 5 N NaOH) were added and the mixture incubated at 60° C. for a further 15 minutes. After cooling to room temperature for 15 minutes, enzyme activity was determined colorimetrically by reading the absorbance at 530 nm. Three independent experiments were conducted. Experiment 1 and 2 each contained 2 technical replicates, while experiment 3 included 3 technical replicates.

AHAS of 14CS0851-01-14 = experiment: AHAS product feedback inhibition assay; type: biochemical, Camelina sativa; conditions: for sensitivity of AHAS to feedback inhibition, comparison of enzyme extracts: 14CS0851-01-14 vs SRS 934 and MIDAS, 1 mM, 10 mM; for Absorbance reading (530 nm), raw data: single reps
Protocol: as §1, §2, §3

AHAS of MIDAS = experiment: AHAS product feedback inhibition assay; type: biochemical, Camelina sativa; conditions: for Absorbance reading (530 nm), raw data: single reps
Protocol: as §1, §2, §3

13CS0786 [1] = experiment: Greenhouse dose-response to thifensulfuron-methyl (height, biomass); type: in vivo, Camelina sativa; conditions: 21 days after application, rates 0 to 525 g ai/ha, n = 16
12CS0365 [2] = experiment: as above; type: in vivo, Camelina sativa; conditions: 21 days after application, rates 0 to 525 g ai/ha, n = 16
SRS 934 [3] = experiment: as above; type: in vivo, Camelina sativa; conditions: 21 days after application, rates 0 to 525 g ai/ha, n = 16
[4] = tested on: segregating camelina populations; experiment: Segregation of resistance to thifensulfuron-methyl in F2, BC1F1 and BC4F2 populations; type: in vivo, Camelina sativa; conditions: 2.5 g ai/ha, 7 d
Description: From each cross combination, randomly selected F1 plants were selfed for the development of F2 populations segregating for 1 resistance gene.
Further, mutant lines 12CS0365 and 12CS0366 were crossed with each other and a randomly selected F1 plant selfed for the development of an F2 population segregating for 2 independent resistance genes. F4 progeny of F2 plants homozygous for both resistance genes (13CS0786) was backcrossed to 10CS0048 to form a backcross (BC1F1) population. Further backcrossing to the recurrent parent 10CS0048 was conducted until stabilization of the trait in the BC4F3 generation (homozygous for 2 resistance genes).
(§4) At a thifensulfuron-methyl application rate of 2.5 g ai/ha, plants from parental, F2, BC1F1, and BC4F2 populations could easily be scored into one of two discrete phenotypic classes (R, resistant or S, susceptible) 7 d after herbicide application.
Assuming inheritance in a Mendelian manner, the expected genotypic segregation ratio in an F2 population segregating for a single resistance gene would be 1(RR): 2(Rr): 1(rr), or 3(RR, Rr): 1(rr).
If two unlinked genes for resistance are segregating in an F2 population, the expected genotypic segregation ratio would be 9 (R1-R2-): 2 (R1r1r2r2): 2 (r1r1R2r2): 1 (R1R1r2r2): 1 (r1r1R2R2): 1 (r1r1r2r2), or 15 (R1-R2-, R1r1r2r2, r1r1R2r2, R1R1r2r2, r1r1R2R2): 1 (r1r1r2r2). The expected genotypes in the BC1F1 population would be R1r1R2r2, R1r1r2r2, r1r1R2r2, and r1r1r2r2, each produced in equal frequency, resulting in a segregation ratio of 1 (R1r1R2r2): 2 (R1r1r2r2, r1r1R2r2): 1 (r1r1r2r2), or 3 (R1r1R2r2, R1r1r2r2, r1r1R2r2): 1 (r1r1r2r2). The expected segregation ratio in the BC4F2 generation would be the same as that observed in the F2 population.
The F2 population resulting from the reciprocal cross of 10CS0048 with 12CS0365 and 12CS0366, respectively, the F2 population resulting from the cross 12CS0365/12CS0366 and the BC1F1 and BC4F2 populations resulting from the cross of F4 plants homozygous for 2 resistance genes (13CS0786) with recurrent parent 10CS0048, gave good fit to the expected segregation ratios (Table 7).

10CS0048 (MIDAS) = experiment: Phenotype scoring (R/S) after thifensulfuron-methyl 2.5 g ai/ha; type: in vivo, Camelina sativa; conditions: 7 d after application
Description: as §4

12CS0366 [5] = experiment: as above; type: in vivo, Camelina sativa; conditions: 7 d after application
Description: as §4

SRS 934 [6] = experiment: as above; type: in vivo, Camelina sativa; conditions: 7 d after application
Description: as §4

12CS0365 [7] = experiment: as above; type: in vivo, Camelina sativa; conditions: 7 d after application
Description: as §4

13CS0786 [8] = experiment: as above; type: in vivo, Camelina sativa; conditions: 7 d after application
Description: as §4

12CS0366 [9] = experiment: Greenhouse dose-response to thifensulfuron-methyl (height, biomass); type: in vivo, Camelina sativa; conditions: 21 days after application, rates 0 to 525 g ai/ha, n = 16
[10] = Experiment 1, 30 (mM) amino acid
[11] = Experiment 2, 30 (mM) amino acid
[12] = Experiment 3, 30 (mM) amino acid
[13] = Experiment 2, 100 mM amino acid
[14] = F2 of 12CS0365 × 10CS0048 (reciprocal)
[15] = F2 of 12CS0366 × 10CS0048 (reciprocal)
[16] = Experiment 2, 10 mM amino acid, listed as Valine

CC[C@H](C)[C@H](N)C(=O)O [isoleucine]
Absorbance reading (530 nm), AVG of reps (AHAS of SRS 934; [10]): 0.234
Absorbance reading (530 nm), raw data (AHAS of SRS 934; [10]): 0.233
Absorbance reading (530 nm), AVG of reps (AHAS of SRS 934; [11]): 0.187
Absorbance reading (530 nm), raw data (AHAS of SRS 934; [11]): 0.219 and 0.154
Absorbance reading (530 nm), AVG of reps (AHAS of SRS 934; [12]): 0.033
Absorbance reading (530 nm), raw data (AHAS of SRS 934; [12]): 0.100
sensitivity of AHAS to feedback inhibition, comparison of enzyme extracts (AHAS of 14CS0851-01-14; 100 mM amino acid): no significant difference
Absorbance reading (530 nm), AVG of reps (AHAS of 14CS0851-01-14; [10]): 0.209
Absorbance reading (530 nm), raw data (AHAS of 14CS0851-01-14; [10]): 0.201 and 0.217
Absorbance reading (530 nm), AVG of reps (AHAS of 14CS0851-01-14; [11]): 0.186
Absorbance reading (530 nm), raw data (AHAS of 14CS0851-01-14; [13]): 0.170
Absorbance reading (530 nm), raw data (AHAS of 14CS0851-01-14; [11]): 0.200 and 0.171
Absorbance reading (530 nm), AVG of reps (AHAS of 14CS0851-01-14; [12]): 0.088
Absorbance reading (530 nm), raw data (AHAS of 14CS0851-01-14; [12]): 0.087 and 0.082 and 0.094
Absorbance reading (530 nm), AVG of reps (AHAS of MIDAS; [10]): 0.2675
Absorbance reading (530 nm), raw data (AHAS of MIDAS; [10]): 0.275 and 0.26
Absorbance reading (530 nm), AVG of reps (AHAS of MIDAS; [13]): 0.163
Absorbance reading (530 nm), raw data (AHAS of MIDAS; [11]): 0.208 and 0.176
Absorbance reading (530 nm), AVG of reps (AHAS of MIDAS; [12]): 0.103
Absorbance reading (530 nm), raw data (AHAS of MIDAS; [12]): 0.100 and 0.107 and 0.102

CC(C)C[C@H](N)C(=O)O [leucine]
sensitivity of AHAS to feedback inhibition, comparison of enzyme extracts (AHAS of 14CS0851-01-14; 100 mM amino acid): no significant difference
Absorbance reading (530 nm), AVG of reps (AHAS of 14CS0851-01-14; Experiment 1, 100 mM amino acid): 0.143

COC(=O)c1sccc1S(=O)(=O)NC(=O)Nc1nc(C)nc(OC)n1 [thifensulfuron-methyl]
ED50 biomass (13CS0786 [1]): 89.61 g ai/ha
ED50 height (13CS0786 [1]): 26.36 g ai/ha
ED50 biomass (12CS0365 [2]): 0.69 g ai/ha
ED50 height (12CS0365 [2]): 1.81 g ai/ha
ED50 biomass (SRS 934 [3]): 0.09 g ai/ha
ED50 height (SRS 934 [3]): 0.14 g ai/ha
Resistant (R), number of plants ([4]; BC1F1 of 10CS0048 × 13CS0786): 27 (27)^
Susceptible (S), number of plants ([4]; BC1F1 of 10CS0048 × 13CS0786): 9 (9)
Resistant (R), number of plants ([4]; BC4F2 of 10CS0048 × 13CS0786): 147 (147.2)
Susceptible (S), number of plants ([4]; BC4F2 of 10CS0048 × 13CS0786): 10 (9.8)
Resistant (R), number of plants [4, 14]: 555 (568)^‡
Susceptible (S), number of plants [4, 14]: 202 (189)
Resistant (R), number of plants ([4]; F2 of 12CS0365 × 12CS0366): 307 (306.6)
Susceptible (S), number of plants ([4]; F2 of 12CS0365 × 12CS0366): 20 (20.4)
Resistant (R), number of plants [4, 15]: 549 (540)^
Susceptible (S), number of plants [4, 15]: 171 (180)
phenotype after herbicide application (10CS0048 (MIDAS)): either killed or greatly damaged
phenotype after herbicide application (12CS0366 [5]): resistant phenotype
phenotype after herbicide application (SRS 934 [6]): either killed or greatly damaged
phenotype after herbicide application (12CS0365 [7]): resistant phenotype
phenotype after herbicide application (13CS0786 [8]): resistant phenotype
ED50 biomass (12CS0366 [9]): 8.67 g ai/ha
ED50 height (12CS0366 [9]): 5.25 g ai/ha

CC(C)[C@H](N)C(=O)O [valine]
Absorbance reading (530 nm), AVG of reps (AHAS of SRS 934; Experiment 1, 10 mM amino acid): 0.184
Absorbance reading (530 nm), raw data (AHAS of SRS 934; Experiment 1, 10 mM amino acid): 0.186 and 0.182
Absorbance reading (530 nm), AVG of reps (AHAS of SRS 934; Experiment 2, 10 mM amino acid): 0.179
Absorbance reading (530 nm), raw data (AHAS of SRS 934; [16]): 0.206 and 0.151
Absorbance reading (530 nm), AVG of reps (AHAS of SRS 934; Experiment 3, 10 mM amino acid): 0.093
Absorbance reading (530 nm), raw data (AHAS of SRS 934; Experiment 3, 10 mM amino acid): 0.091
sensitivity of AHAS to feedback inhibition, comparison of enzyme extracts (AHAS of 14CS0851-01-14; 100 mM amino acid): no significant difference
Absorbance reading (530 nm), AVG of reps (AHAS of 14CS0851-01-14; Experiment 2, 10 mM amino acid): 0.178
Absorbance reading (530 nm), raw data (AHAS of 14CS0851-01-14; Experiment 2, 10 mM amino acid): 0.190
Absorbance reading (530 nm), raw data (AHAS of 14CS0851-01-14; [13]): 0.333
Absorbance reading (530 nm), AVG of reps (AHAS of 14CS0851-01-14; Experiment 3, 10 mM amino acid): 0.073
Absorbance reading (530 nm), raw data (AHAS of 14CS0851-01-14; Experiment 3, 10 mM amino acid): 0.057 and 0.084
Absorbance reading (530 nm), AVG of reps (AHAS of MIDAS; Experiment 1, 10 mM amino acid): 0.214
Absorbance reading (530 nm), raw data (AHAS of MIDAS; Experiment 1, 10 mM amino acid): 0.205 and 0.223
Absorbance reading (530 nm), AVG of reps (AHAS of MIDAS; Experiment 2, 10 mM amino acid): 0.191
Absorbance reading (530 nm), raw data (AHAS of MIDAS; Experiment 2, 10 mM amino acid): 0.217
Absorbance reading (530 nm), raw data (AHAS of MIDAS; [16]): 0.165
Absorbance reading (530 nm), AVG of reps (AHAS of MIDAS; Experiment 3, 10 mM amino acid): 0.112
Absorbance reading (530 nm), raw data (AHAS of MIDAS; Experiment 3, 10 mM amino acid): 0.133 and 0.110 and 0.112
